Data: ChEMBL document CHEMBL1122408, “Pyridinylpiperazines, a new class of selective alpha 2-adrenoceptor antagonists” (J Med Chem, 1983)

Experiments:
[1] = molecular target: T1, Adrenergic receptor alpha-2 (Rattus norvegicus) (UniProt P22086+P19328+P22909)
[2] = molecular target: T2, Alpha-1A adrenergic receptor (Bos taurus, UniProt P18130); assay: Binding activity against alpha-1 adrenergic receptor from calf cerebral cortex, using [3H]-prazosin as the radioligand; type: tissue-based
T2 sequence (P18130 whole entry): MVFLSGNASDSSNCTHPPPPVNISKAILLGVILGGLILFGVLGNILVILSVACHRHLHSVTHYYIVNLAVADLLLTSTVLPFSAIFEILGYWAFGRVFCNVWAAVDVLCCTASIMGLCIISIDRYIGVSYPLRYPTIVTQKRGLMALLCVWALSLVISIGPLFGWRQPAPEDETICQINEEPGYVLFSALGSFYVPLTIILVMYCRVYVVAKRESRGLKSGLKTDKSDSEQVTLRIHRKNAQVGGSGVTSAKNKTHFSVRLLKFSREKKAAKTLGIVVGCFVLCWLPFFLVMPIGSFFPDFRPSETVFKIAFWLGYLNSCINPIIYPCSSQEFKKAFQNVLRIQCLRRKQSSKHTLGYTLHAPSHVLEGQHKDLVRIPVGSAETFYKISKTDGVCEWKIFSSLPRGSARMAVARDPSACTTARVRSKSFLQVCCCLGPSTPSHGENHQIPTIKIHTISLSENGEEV

[3] = molecular target: T3, Alpha-2A adrenergic receptor (Bos taurus, UniProt Q28838); assay: Binding activity against alpha-2 adrenergic receptor from calf cerebral cortex, using [3H]clonidine as the radioligand; type: tissue-based
T3 sequence (Q28838 whole entry): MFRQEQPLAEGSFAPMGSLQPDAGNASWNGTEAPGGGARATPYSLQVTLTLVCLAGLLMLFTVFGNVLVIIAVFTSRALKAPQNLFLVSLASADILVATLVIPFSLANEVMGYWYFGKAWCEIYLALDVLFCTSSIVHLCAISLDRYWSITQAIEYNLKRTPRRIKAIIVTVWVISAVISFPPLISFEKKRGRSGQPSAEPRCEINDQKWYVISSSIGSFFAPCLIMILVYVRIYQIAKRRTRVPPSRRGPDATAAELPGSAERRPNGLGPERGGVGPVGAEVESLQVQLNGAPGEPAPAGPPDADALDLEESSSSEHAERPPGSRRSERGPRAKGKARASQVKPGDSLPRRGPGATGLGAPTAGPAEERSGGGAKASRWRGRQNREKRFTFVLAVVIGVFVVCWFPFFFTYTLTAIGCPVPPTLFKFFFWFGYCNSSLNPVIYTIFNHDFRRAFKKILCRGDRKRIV

[4] = molecular target: T4, Adrenergic receptor alpha-2 (Rattus norvegicus, UniProt P22086+P19328+P22909); assay: Presynaptic antagonistic activity against alpha-2 adrenergic receptor from rat, isolated, field-stimulated vas deferens, using clonidine as the agonist; type: functional
T4 sequence (P22086 whole entry): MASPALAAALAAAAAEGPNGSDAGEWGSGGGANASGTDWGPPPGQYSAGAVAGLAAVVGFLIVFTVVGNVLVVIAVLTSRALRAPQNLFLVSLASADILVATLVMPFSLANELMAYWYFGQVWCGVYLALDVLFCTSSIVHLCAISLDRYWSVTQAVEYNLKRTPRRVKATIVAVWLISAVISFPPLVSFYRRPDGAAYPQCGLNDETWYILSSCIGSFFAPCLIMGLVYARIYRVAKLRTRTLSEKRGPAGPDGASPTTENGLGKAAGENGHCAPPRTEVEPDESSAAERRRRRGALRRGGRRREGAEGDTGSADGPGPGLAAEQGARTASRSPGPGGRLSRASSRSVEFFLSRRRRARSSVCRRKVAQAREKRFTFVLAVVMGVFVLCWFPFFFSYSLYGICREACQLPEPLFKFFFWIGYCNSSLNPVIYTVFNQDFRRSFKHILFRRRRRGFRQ
T4 sequence (P19328 whole entry): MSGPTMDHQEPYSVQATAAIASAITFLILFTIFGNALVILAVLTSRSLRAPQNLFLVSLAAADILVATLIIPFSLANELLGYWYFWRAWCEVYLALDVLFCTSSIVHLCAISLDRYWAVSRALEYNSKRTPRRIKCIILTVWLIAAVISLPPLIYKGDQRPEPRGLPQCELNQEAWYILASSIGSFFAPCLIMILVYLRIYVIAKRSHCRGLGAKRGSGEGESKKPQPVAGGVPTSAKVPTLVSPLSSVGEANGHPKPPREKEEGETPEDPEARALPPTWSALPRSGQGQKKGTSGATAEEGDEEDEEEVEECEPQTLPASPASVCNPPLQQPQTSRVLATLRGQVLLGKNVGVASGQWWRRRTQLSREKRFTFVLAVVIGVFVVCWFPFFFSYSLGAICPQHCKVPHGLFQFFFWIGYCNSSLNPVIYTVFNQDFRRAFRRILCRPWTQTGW
T4 sequence (P22909 whole entry): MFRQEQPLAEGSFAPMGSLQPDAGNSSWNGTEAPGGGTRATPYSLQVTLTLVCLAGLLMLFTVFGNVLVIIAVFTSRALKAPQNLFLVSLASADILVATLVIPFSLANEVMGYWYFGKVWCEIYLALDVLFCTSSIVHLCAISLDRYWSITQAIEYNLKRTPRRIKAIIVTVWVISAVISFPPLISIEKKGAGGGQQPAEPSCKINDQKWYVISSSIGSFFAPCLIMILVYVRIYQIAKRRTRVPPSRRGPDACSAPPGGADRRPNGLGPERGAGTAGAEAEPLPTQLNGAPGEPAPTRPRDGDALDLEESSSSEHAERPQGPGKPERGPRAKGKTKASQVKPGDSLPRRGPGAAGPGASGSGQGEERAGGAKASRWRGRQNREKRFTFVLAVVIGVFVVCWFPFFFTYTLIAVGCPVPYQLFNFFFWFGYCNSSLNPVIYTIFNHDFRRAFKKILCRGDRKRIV

[5] = molecular target: T5, Adrenergic receptor alpha-1 (Rattus norvegicus, UniProt P15823+P23944+P43140); assay: Presynaptic antagonistic activity against alpha-1 adrenergic receptor from rat, isolated, field-stimulated vas deferens, using methoxamine as the agonist; type: functional
T5 sequence (P15823 whole entry): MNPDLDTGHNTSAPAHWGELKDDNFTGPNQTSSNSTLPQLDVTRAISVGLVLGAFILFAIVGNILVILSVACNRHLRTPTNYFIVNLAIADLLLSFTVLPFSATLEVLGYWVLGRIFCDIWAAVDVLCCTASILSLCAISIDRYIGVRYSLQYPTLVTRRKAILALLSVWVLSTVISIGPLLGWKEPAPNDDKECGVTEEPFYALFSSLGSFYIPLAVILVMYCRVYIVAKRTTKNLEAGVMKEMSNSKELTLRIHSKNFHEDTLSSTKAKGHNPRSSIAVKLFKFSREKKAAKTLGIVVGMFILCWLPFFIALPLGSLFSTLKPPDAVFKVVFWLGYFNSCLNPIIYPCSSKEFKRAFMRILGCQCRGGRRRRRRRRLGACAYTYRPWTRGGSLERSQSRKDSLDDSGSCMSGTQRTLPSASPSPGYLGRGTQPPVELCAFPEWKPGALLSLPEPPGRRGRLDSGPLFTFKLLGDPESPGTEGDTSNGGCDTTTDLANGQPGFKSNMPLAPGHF
T5 sequence (P23944 whole entry): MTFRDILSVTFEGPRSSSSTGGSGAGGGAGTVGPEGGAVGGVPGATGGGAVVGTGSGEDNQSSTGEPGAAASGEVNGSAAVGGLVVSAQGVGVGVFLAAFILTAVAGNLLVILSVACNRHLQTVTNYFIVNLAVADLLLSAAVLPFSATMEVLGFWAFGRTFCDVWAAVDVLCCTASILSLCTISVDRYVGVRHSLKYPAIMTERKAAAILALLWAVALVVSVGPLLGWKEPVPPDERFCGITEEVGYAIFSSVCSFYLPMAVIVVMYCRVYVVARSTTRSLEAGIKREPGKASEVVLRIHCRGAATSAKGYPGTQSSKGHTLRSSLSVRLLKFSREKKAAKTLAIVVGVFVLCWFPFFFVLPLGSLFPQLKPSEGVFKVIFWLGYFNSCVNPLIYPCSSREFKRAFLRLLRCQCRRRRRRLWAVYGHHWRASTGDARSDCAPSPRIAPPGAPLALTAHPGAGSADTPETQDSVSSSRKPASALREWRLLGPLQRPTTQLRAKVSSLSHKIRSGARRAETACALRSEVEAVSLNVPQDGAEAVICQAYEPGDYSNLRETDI
T5 sequence (P43140 whole entry): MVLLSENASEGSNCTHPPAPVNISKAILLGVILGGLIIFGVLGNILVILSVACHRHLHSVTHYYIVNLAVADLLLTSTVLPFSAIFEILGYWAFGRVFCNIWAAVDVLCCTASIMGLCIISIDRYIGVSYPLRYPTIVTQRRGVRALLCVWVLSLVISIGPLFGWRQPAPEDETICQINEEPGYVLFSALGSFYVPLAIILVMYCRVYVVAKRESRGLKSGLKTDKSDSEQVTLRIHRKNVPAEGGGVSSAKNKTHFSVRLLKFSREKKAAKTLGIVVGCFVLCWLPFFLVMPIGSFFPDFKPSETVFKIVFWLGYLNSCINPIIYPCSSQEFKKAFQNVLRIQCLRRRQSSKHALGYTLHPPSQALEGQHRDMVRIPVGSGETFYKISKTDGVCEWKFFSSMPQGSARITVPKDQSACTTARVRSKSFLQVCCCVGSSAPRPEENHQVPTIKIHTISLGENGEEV

[6] = molecular target: T1, Adrenergic receptor alpha-2 (Rattus norvegicus); assay: Antagonistic activity against central alpha-2 adrenergic receptor, in anesthetized rats, by reversing the established clonidine-induced mydriasis; 0.3-1; type: functional

SMILES | AD50 [1] [mg/kg] | Ki [2] [nM] | Ki [3] [nM] | pA2 [4] | pA2 [5] | AD50 [6] [mg/kg]
COC(=O)[C@H]1[C@H]2C[C@H]3c4[nH]c5ccccc5c4CCN3C[C@H]2CC[C@@H]1O | 1.1 | – | – | – | – | –
c1ccc2c(c1)OCC(C1=NCCN1)O2 (stereo unspecified) [IDAZOXAN] | 0.05 | 500 | 1.5 | – | – | –
CN1CCN(c2ncccc2Br)CC1 | 0.74 | 160 | – | 7.6 | 6.5 | –
c1ccc(N2CCNCC2)nc1 | 1.28 | 2400 | – | 6.4 | 5.7 | –
Ic1cccnc1N1CCNCC1 | 1.95 | 1600 | – | 6.2 | 6 | –
Clc1cccnc1N1CCNCC1 | 0.44 | 1800 | – | 6.9 | 5.7 | –
CN1CCN(c2ncccc2Cl)CC1 | 0.56 | 215 | 2.7 | 7.4 | 6.5 | –
Clc1ccc(N2CCNCC2)nc1 | > 3 | 900 | 1340 | < 5.8 | – | –
CN1CCN(c2ncccc2F)CC1 | 0.67 | 490 | 5 | 7.4 | 6.2 | –
NC(=O)c1cccnc1N1CCNCC1 | > 3 | 62000 | 5200 | < 5.8 | – | –
Clc1cccc(N2CCNCC2)n1 | – | 375 | – | 6.8 | 6 | 0.3
FC(F)(F)c1cccnc1N1CCNCC1 | 3.63 | 2850 | 97 | < 5.8 | – | –
Clc1cnc(N2CCNCC2)c(Cl)c1 | > 3 | 800 | 500 | < 5.8 | – | –
Clc1ccccc1N1CCNCC1 | 1.03 | 160 | 25 | 6 | 6.5 | –
Brc1cccnc1N1CCNCC1 | 0.68 | 1480 | – | 6.6 | 5.8 | –
COC(=O)[C@@H]1[C@H]2C[C@H]3c4[nH]c5ccccc5c4CCN3C[C@@H]2CC[C@@H]1O | 1.04 | – | – | – | – | –
CN1CCN2c3ccccc3Cc3ccccc3C2C1 (stereo unspecified) | > 10 | – | – | – | – | –
O=[N+]([O-])c1cccnc1N1CCNCC1 | 1.53 | 3800 | 26 | 6.3 | – | –
Clc1cccnc1N1CCN(Cc2ccccc2)CC1 | > 3 | 700 | 120 | 6.5 | 7 | –
Cc1ccnc(N2CCNCC2)c1Cl | 14 | 4300 | 74 | 5.9 | – | –
N#Cc1cccnc1N1CCNCC1 | 1.07 | 2000 | 14 | 6.1 | – | –
Clc1cnccc1N1CCNCC1 | > 3 | 6800 | 390 | < 5.8 | – | –
Fc1cccnc1N1CCNCC1 | 0.23 | 2500 | 8.2 | 6.9 | 5.18 | –
Nc1cccnc1N1CCNCC1 | > 3 | 31000 | 440 | < 5.8 | – | –
